ChEMBL document CHEMBL2390880, “Influence of 4- or 5-substituents on the pyrrolidine ring of 5-[1-(2-methoxymethylpyrrolidinyl)sulfonyl]isatin derivatives on their inhibitory activities towards caspases-3 and -7” (Eur J Med Chem, 2013)

Experiments:
[1] = target: T1, Caspase-3 (Homo sapiens, UniProt P42574); test: Inhibition of human recombinant caspase-3 using Ac-DEVD-AMC as substrate assessed as accumulation of AMC preincubated for 10 mins followed by substrate addition measured after 10 mins by fluorescence assay
T1 sequence (P42574 whole entry): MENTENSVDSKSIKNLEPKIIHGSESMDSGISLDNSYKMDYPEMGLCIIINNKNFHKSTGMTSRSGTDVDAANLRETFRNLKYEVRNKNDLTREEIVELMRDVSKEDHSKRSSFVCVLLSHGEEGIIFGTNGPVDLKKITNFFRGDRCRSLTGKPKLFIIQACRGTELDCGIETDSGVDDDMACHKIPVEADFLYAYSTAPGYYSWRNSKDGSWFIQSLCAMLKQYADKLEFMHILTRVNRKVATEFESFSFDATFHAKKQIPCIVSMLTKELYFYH

[2] = target: T2, Caspase-7 (Homo sapiens, UniProt P55210); test: Inhibition of human recombinant caspase-7 using Ac-DEVD-AMC as substrate assessed as accumulation of AMC preincubated for 10 mins followed by substrate addition measured after 10 mins by fluorescence assay
T2 sequence (P55210 whole entry): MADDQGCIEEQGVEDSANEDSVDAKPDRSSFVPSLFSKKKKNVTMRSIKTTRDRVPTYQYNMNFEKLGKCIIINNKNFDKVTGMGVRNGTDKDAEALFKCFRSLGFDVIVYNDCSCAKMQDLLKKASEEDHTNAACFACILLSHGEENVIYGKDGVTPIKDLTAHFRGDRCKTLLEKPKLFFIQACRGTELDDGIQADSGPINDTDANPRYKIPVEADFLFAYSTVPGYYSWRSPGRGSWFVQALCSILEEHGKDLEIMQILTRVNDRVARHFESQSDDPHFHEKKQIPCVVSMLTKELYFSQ

## COC[C@H]1CC[C@@H](COC)N1S(=O)(=O)c1ccc2c(c1)C(=O)C(=O)N2
[1]
  IC50: > 500 µM
[2]
  IC50: > 500 µM

## COC[C@@H]1C[C@H](C(F)(F)F)CN1S(=O)(=O)c1ccc2c(c1)C(=O)C(=O)N2
[1]
  IC50: 101 µM

## COC[C@@H]1C[C@@H](OCCOCCOCCOCCO)CN1S(=O)(=O)c1ccc2c(c1)C(=O)C(=O)N2
[1]
  IC50: > 500 µM
[2]
  IC50: > 500 µM

## COC[C@@H]1C[C@@H](C(F)(F)F)CN1S(=O)(=O)c1ccc2c(c1)C(=O)C(=O)N2
[1]
  IC50: > 500 µM
[2]
  IC50: > 500 µM

## CCCCN1C(=O)C(=O)c2cc(S(=O)(=O)N3C[C@@H](OCCOCCOCCOCCO)C[C@H]3COC)ccc21
[1]
  IC50: > 500 µM
[2]
  IC50: > 500 µM

## COC[C@@H]1C[C@H](OC)CN1S(=O)(=O)c1ccc2c(c1)C(=O)C(=O)N2
[1]
  IC50: > 500 µM
[2]
  IC50: > 500 µM

## COC[C@@H]1CC[C@@H](COC)N1S(=O)(=O)c1ccc2c(c1)C(=O)C(=O)N2
[1]
  IC50: > 500 µM
[2]
  IC50: > 500 µM

## COC[C@@H]1C[C@H](OCCOCCOCCOCCO)CN1S(=O)(=O)c1ccc2c(c1)C(=O)C(=O)N2
[1]
  IC50: > 500 µM
[2]
  IC50: > 500 µM

## COC[C@@H]1C[C@@H](OC)CN1S(=O)(=O)c1ccc2c(c1)C(=O)C(=O)N2
[1]
  IC50: > 500 µM
[2]
  IC50: > 500 µM
